Experimental data as given in paper PMC11350809, “Targeting N-Acetylglucosaminidase in Staphylococcus aureus with Iminosugar Inhibitors” (Antibiotics, 2024).

target: α-Glucosidase (from baker's yeast); experiment: not given; settings: pH 7.2, p-nitrophenyl-a-d-glucopyranoside; footnote **; cited from earlier work

SMILES	IC50 [µM]
CCCCCCCCCCCCCCNC(=O)N1CC(O)C(O)C(O)C1 (centres unmarked) [Compound 10]	> 100

same assay, conditions: pH 7.2, p-nitrophenyl-α-D-glucopyranoside; footnote ***; cited from earlier work

SMILES	IC50 [µM]
CCCCOC1OCC(CNC(=N)N2CC(O)C(O)C(O)C2)O1 (centres unmarked) [Compound 11]	> 30
CCCCCCCCOC1OCC(CNC(=N)N2CC(O)C(O)C(O)C2)O1 (centres unmarked) [Compound 17]	> 30

same assay, conditions: pH 7.2, p-nitrophenyl-α-D-glucopyranoside; footnote *; cited from earlier work

SMILES	IC50 [µM]
CCCCCCCCN=C1OCC2C(O)C(O)C(O)CN12 (centres unmarked) [Compound 12]	> 100
CCCCCCCCCCCCN=C1OCC2C(O)C(O)C(O)CN12 (centres unmarked) [Compound 14]	> 100
CCCCCCCCCCN=C1OCC2C(O)C(O)C(O)CN12 (centres unmarked) [Compound 13]	> 100
CCCCCCCCCCN(CCCCCCCCCC)C(=O)CN=C1OCC2C(O)C(O)C(O)CN12 (centres unmarked) [Compound 2]	> 100

target: β-galactocerebrosidase (GALC); experiment: not given; settings: footnote ***; cited from earlier work

SMILES	IC50 [µM]
CCCCOC1OCC(CNC(=N)N2CC(O)C(O)C(O)C2)O1 (centres unmarked) [Compound 11]	> 30
CCCCCCCCOC1OCC(CNC(=N)N2CC(O)C(O)C(O)C2)O1 (centres unmarked) [Compound 17]	> 30

same assay, conditions: footnote **; cited from earlier work

SMILES	IC50 [µM]
CCCCCCCCCCCCCCNC(=O)N1CC(O)C(O)C(O)C1 (centres unmarked) [Compound 10]	> 10

same assay, conditions: footnote *; cited from earlier work

SMILES	IC50 [µM]
CCCCCCCCN=C1OCC2C(O)C(O)C(O)CN12 (centres unmarked) [Compound 12]	> 10
CCCCCCCCCCCCN=C1OCC2C(O)C(O)C(O)CN12 (centres unmarked) [Compound 14]	> 10
CCCCCCCCCCN=C1OCC2C(O)C(O)C(O)CN12 (centres unmarked) [Compound 13]	> 10
CCCCCCCCCCN(CCCCCCCCCC)C(=O)CN=C1OCC2C(O)C(O)C(O)CN12 (centres unmarked) [Compound 2]	> 10

target: naringinase (Nar); experiment: not given; settings: footnote ***; cited from earlier work

SMILES	IC50 [µM]
CCCCOC1OCC(CNC(=N)N2CC(O)C(O)C(O)C2)O1 (centres unmarked) [Compound 11]	> 30
CCCCCCCCOC1OCC(CNC(=N)N2CC(O)C(O)C(O)C2)O1 (centres unmarked) [Compound 17]	> 30

same assay, conditions: footnote **; cited from earlier work

SMILES	IC50 [µM]
CCCCCCCCCCCCCCNC(=O)N1CC(O)C(O)C(O)C1 (centres unmarked) [Compound 10]	> 100

same assay, conditions: footnote *; cited from earlier work

SMILES	IC50 [µM]
CCCCCCCCN=C1OCC2C(O)C(O)C(O)CN12 (centres unmarked) [Compound 12]	0.1 ± 0.01
CCCCCCCCCCCCN=C1OCC2C(O)C(O)C(O)CN12 (centres unmarked) [Compound 14]	0.1 ± 0.01
CCCCCCCCCCN=C1OCC2C(O)C(O)C(O)CN12 (centres unmarked) [Compound 13]	0.01 ± 0.01
CCCCCCCCCCN(CCCCCCCCCC)C(=O)CN=C1OCC2C(O)C(O)C(O)CN12 (centres unmarked) [Compound 2]	0.5 ± 0.01

target: β-Galactosidase (from bovine liver); experiment: not given; settings: footnote ***; cited from earlier work

SMILES	IC50 [µM]
CCCCOC1OCC(CNC(=N)N2CC(O)C(O)C(O)C2)O1 (centres unmarked) [Compound 11]	> 30
CCCCCCCCOC1OCC(CNC(=N)N2CC(O)C(O)C(O)C2)O1 (centres unmarked) [Compound 17]	> 30

same assay, conditions: footnote **; cited from earlier work

SMILES	IC50 [µM]
CCCCCCCCCCCCCCNC(=O)N1CC(O)C(O)C(O)C1 (centres unmarked) [Compound 10]	34.2 ± 1.9

same assay, conditions: footnote *; cited from earlier work

SMILES	IC50 [µM]
CCCCCCCCN=C1OCC2C(O)C(O)C(O)CN12 (centres unmarked) [Compound 12]	0.4 ± 0.01
CCCCCCCCCCCCN=C1OCC2C(O)C(O)C(O)CN12 (centres unmarked) [Compound 14]	< 0.1
CCCCCCCCCCN=C1OCC2C(O)C(O)C(O)CN12 (centres unmarked) [Compound 13]	0.1 ± 0.01
CCCCCCCCCCN(CCCCCCCCCC)C(=O)CN=C1OCC2C(O)C(O)C(O)CN12 (centres unmarked) [Compound 2]	0.9 ± 0.1

system: E. coli (ATCC 25922); experiment: Minimal inhibitory concentration, broth microdilution (negative control strain); format: cell-based; settings: Escherichia coli, ATCC25922; broth microdilution, 20 h at 35 °C; read-out: MIC E. coli ATCC25922
Description: (§1) The minimal inhibitory concentrations (MICs) were determined against the bacterial strains S. aureus (ATCC 29213) and E. coli (ATCC 25922), and the results are presented in Table S6.
(§2) Antimicrobial testing was carried out by the broth microdilution method in a 96-well plate format following the CLSI guidelines and European Committee for Antimicrobial Susceptibility Testing (EUCAST) recommendations. Bacterial suspension of a specific bacterial strain equivalent to 0.5 McFarland turbidity standard was diluted with cation-adjusted Mueller Hinton broth to obtain a final inoculum of 10^5 CFU/mL. Compounds dissolved in 20% DMSO and inoculum were mixed together and incubated for 20 h at 35 °C. After incubation, the minimal inhibitory concentration (MIC) values were determined by visual inspection as the lowest dilution of compounds showing no turbidity. The MICs were determined against S. aureus (ATCC 29213) and E. coli (ATCC 25922) bacterial strains. Tetracycline was used as a positive control on every assay plate, showing MICs of 0.5 µg/mL and 1 µg/mL for S. aureus and E. coli, respectively.

SMILES	MIC [µM]
CCCCOC1OCC(CNC(=N)N2CC(O)C(O)C(O)C2)O1 (centres unmarked) [Compound 11]	> 500
CCCCCCCCCCN(CCCCCCCCCC)C(=O)CN=C1OCC2C(O)C(O)C(O)CN12 (centres unmarked) [Compound 2]	> 500
CCCCCCCCCCCCCCNC(=O)N1CC(O)C(O)C(O)C1 (centres unmarked) [Compound 10]	> 500

same assay, conditions: Escherichia coli, ATCC25922; positive control on every assay plate; read-out: MIC E. coli

SMILES	MIC [µg/mL]
CN(C)[C@@H]1C(O)=C(C(N)=O)C(=O)[C@@]2(O)C(O)=C3C(=O)c4c(O)cccc4[C@@](C)(O)[C@H]3C[C@@H]12 [Tetracycline, reference compound]	1

target: α-Galactosidase (from green coffee beans); experiment: not given; settings: pH 6.8, p-nitrophenyl-a-d-galactopyranoside; footnote **; cited from earlier work

SMILES	IC50 [µM]
CCCCCCCCCCCCCCNC(=O)N1CC(O)C(O)C(O)C1 (centres unmarked) [Compound 10]	> 100

same assay, conditions: pH 6.8, p-nitrophenyl-α-D-galactopyranoside; footnote ***; cited from earlier work

SMILES	IC50 [µM]
CCCCOC1OCC(CNC(=N)N2CC(O)C(O)C(O)C2)O1 (centres unmarked) [Compound 11]	> 30
CCCCCCCCOC1OCC(CNC(=N)N2CC(O)C(O)C(O)C2)O1 (centres unmarked) [Compound 17]	> 30

same assay, conditions: pH 6.8, p-nitrophenyl-α-D-galactopyranoside; footnote *; cited from earlier work

SMILES	IC50 [µM]
CCCCCCCCN=C1OCC2C(O)C(O)C(O)CN12 (centres unmarked) [Compound 12]	> 100
CCCCCCCCCCCCN=C1OCC2C(O)C(O)C(O)CN12 (centres unmarked) [Compound 14]	> 100
CCCCCCCCCCN=C1OCC2C(O)C(O)C(O)CN12 (centres unmarked) [Compound 13]	> 100
CCCCCCCCCCN(CCCCCCCCCC)C(=O)CN=C1OCC2C(O)C(O)C(O)CN12 (centres unmarked) [Compound 2]	> 100

system: S. aureus (ATCC 29213); experiment: Minimal inhibitory concentration, broth microdilution; format: cell-based, Staphylococcus aureus; settings: Staphylococcus aureus, ATCC29213; broth microdilution, 20 h at 35 °C; read-out: MIC S. aureus ATCC29213
Description: as §1, §2

SMILES	MIC [µM]
CCCCOC1OCC(CNC(=N)N2CC(O)C(O)C(O)C2)O1 (centres unmarked) [Compound 11]	> 500
CCCCCCCCCCN(CCCCCCCCCC)C(=O)CN=C1OCC2C(O)C(O)C(O)CN12 (centres unmarked) [Compound 2]	125
CCCCCCCCCCCCCCNC(=O)N1CC(O)C(O)C(O)C1 (centres unmarked) [Compound 10]	> 500

same assay, conditions: Staphylococcus aureus, ATCC29213; positive control on every assay plate; read-out: MIC S. aureus

SMILES	MIC [µg/mL]
CN(C)[C@@H]1C(O)=C(C(N)=O)C(=O)[C@@]2(O)C(O)=C3C(=O)c4c(O)cccc4[C@@](C)(O)[C@H]3C[C@@H]12 [Tetracycline, reference compound]	0.5

same assay, conditions: in words

SMILES	antibacterial activity against S. aureus ATCC 29213
CCCCCCCCCCN(CCCCCCCCCC)C(=O)CN=C1OCC2C(O)C(O)C(O)CN12 (centres unmarked) [Compound 2]	modest antibacterial activities

target: β-Glucosidase (from almond); experiment: not given; settings: pH 5.0, p-nitrophenyl-b-d-glucopyranoside; footnote **; cited from earlier work

SMILES	IC50 [µM]
CCCCCCCCCCCCCCNC(=O)N1CC(O)C(O)C(O)C1 (centres unmarked) [Compound 10]	> 100

same assay, conditions: pH 5.0, p-nitrophenyl-β-D-glucopyranoside; footnote ***; cited from earlier work

SMILES	IC50 [µM]
CCCCOC1OCC(CNC(=N)N2CC(O)C(O)C(O)C2)O1 (centres unmarked) [Compound 11]	19.2 ± 0.5
CCCCCCCCOC1OCC(CNC(=N)N2CC(O)C(O)C(O)C2)O1 (centres unmarked) [Compound 17]	14.6 ± 0.6

same assay, conditions: pH 5.0, p-nitrophenyl-β-D-glucopyranoside; footnote *; cited from earlier work

SMILES	IC50 [µM]
CCCCCCCCN=C1OCC2C(O)C(O)C(O)CN12 (centres unmarked) [Compound 12]	5.7 ± 0.4
CCCCCCCCCCCCN=C1OCC2C(O)C(O)C(O)CN12 (centres unmarked) [Compound 14]	1.6 ± 0.1
CCCCCCCCCCN=C1OCC2C(O)C(O)C(O)CN12 (centres unmarked) [Compound 13]	2.1 ± 0.1
CCCCCCCCCCN(CCCCCCCCCC)C(=O)CN=C1OCC2C(O)C(O)C(O)CN12 (centres unmarked) [Compound 2]	> 100

target: human recombinant β-glucocerebrosidase (GBA); experiment: not given; settings: pH 5.2; footnote ***; read-out: IC50 GBA pH 5.2; cited from earlier work

SMILES	IC50 [µM]
CCCCOC1OCC(CNC(=N)N2CC(O)C(O)C(O)C2)O1 (centres unmarked) [Compound 11]	> 30
CCCCCCCCOC1OCC(CNC(=N)N2CC(O)C(O)C(O)C2)O1 (centres unmarked) [Compound 17]	> 30

same assay, conditions: pH 5.2; footnote **; read-out: IC50 GBA pH 5.2; cited from earlier work

SMILES	IC50 [µM]
CCCCCCCCCCCCCCNC(=O)N1CC(O)C(O)C(O)C1 (centres unmarked) [Compound 10]	> 10

same assay, conditions: pH 5.2; footnote *; read-out: IC50 GBA pH 5.2; cited from earlier work

SMILES	IC50 [µM]
CCCCCCCCN=C1OCC2C(O)C(O)C(O)CN12 (centres unmarked) [Compound 12]	0.1 ± 0.01
CCCCCCCCCCCCN=C1OCC2C(O)C(O)C(O)CN12 (centres unmarked) [Compound 14]	0.01 ± 0.001
CCCCCCCCCCN=C1OCC2C(O)C(O)C(O)CN12 (centres unmarked) [Compound 13]	0.02 ± 0.001
CCCCCCCCCCN(CCCCCCCCCC)C(=O)CN=C1OCC2C(O)C(O)C(O)CN12 (centres unmarked) [Compound 2]	0.01 ± 0.001

same assay, conditions: pH 7.0; footnote ***; read-out: IC50 GBA pH 7.0; cited from earlier work

SMILES	IC50 [µM]
CCCCOC1OCC(CNC(=N)N2CC(O)C(O)C(O)C2)O1 (centres unmarked) [Compound 11]	2.56 ± 0.233
CCCCCCCCOC1OCC(CNC(=N)N2CC(O)C(O)C(O)C2)O1 (centres unmarked) [Compound 17]	0.03 ± 0.01

same assay, conditions: pH 7.0; footnote **; read-out: IC50 GBA pH 7.0; cited from earlier work

SMILES	IC50 [µM]
CCCCCCCCCCCCCCNC(=O)N1CC(O)C(O)C(O)C1 (centres unmarked) [Compound 10]	> 10

same assay, conditions: pH 7.0; footnote *; read-out: IC50 GBA pH 7.0; cited from earlier work

SMILES	IC50 [µM]
CCCCCCCCN=C1OCC2C(O)C(O)C(O)CN12 (centres unmarked) [Compound 12]	0.02 ± 0.001
CCCCCCCCCCCCN=C1OCC2C(O)C(O)C(O)CN12 (centres unmarked) [Compound 14]	0.001 ± 0.001
CCCCCCCCCCN=C1OCC2C(O)C(O)C(O)CN12 (centres unmarked) [Compound 13]	0.001 ± 0.001
CCCCCCCCCCN(CCCCCCCCCC)C(=O)CN=C1OCC2C(O)C(O)C(O)CN12 (centres unmarked) [Compound 2]	0.002 ± 0.001
